Tests used:
viability of cells = assay: CellTiter-Glo luminescent cell viability assay (ATP); assay type: cell-based; conditions: up to 100 μM, 1 and 24 h
Protocol: (A) Full length AKAP-Lbc (AKAP13) and the indicated GEFs were transiently expressed in HEK293 cells. […] (B) Scaff10 inhibits Gα12- but not Gαq-mediated RhoA activation. The indicated Gα12 and Gαq-mutants were transiently co-expressed with AKAP-Lbc and p63RhoGEF in HEK293 cells as indicated. The cells were left untreated or incubated with Scaff10 (50 μM). The fraction of active RhoA was determined using Rhotekin pulldown assays. Shown is one representative out of three experiments. All GEF constructs were in pCMV3a and Myc-tagged (30 ng per transfection). Expression of AKAP-Lbc, LARG and PDZ-RhoGEF is shown in Fig 7 of the main manuscript. […] Lower panel: Corresponding values of fluorescence to upper panel. […] Lower panel: Corresponding values of fluorescence to upper panel. (B) F norm = normalised fluorescence (fluoresence steady state/fluorescence initial state) indicated in ‰. […] The viability of the indicated cells was determined using a CellTiter-Glo®Luminescent Cell Viability Assay (Promega, Wisconsin, USA) according to the manufacturer's instructions. The assay is based on the quantification of ATP as an indicator of metabolically active cells. […] Viability was assessed after 1 and 24 h incubation with Scaff10-8 in the indicated concentrations. An equal volume of CellTiter-Glo Reagent was added, plates were shaken and luminescence monitored over time with the plates held at 22°C. […]

[1] = tested on: AQP2 localization and F-actin in primary IMCD cells; assay: Immunofluorescence microscopy of AQP2 and F-actin in primary IMCD cells; assay type: cell-based, rat
Source text: Primary rat renal inner medullary collecting duct (IMCD) cells were obtained and cultured as previously described. AQP2 was detected with specific rabbit (H27 antibody) and secondary Cy3-coupled antibodies, and F-actin was visualized with Alexa Fluor 647-Phalloidin by laser scanning microscopy (LSM780; Zeiss Jena, Germany) as described.
Fig 8 Scaff10-8 promotes the redistribution of AQP2 to the plasma membrane of primary IMCD cells, which is independent of cAMP elevation and associated with depolymerization of F-actin. (A) Upper panel. IMCD cells were treated with DMSO (1%; control), the solvent of Scaff10-8, or forskolin (10 μM, 30 min) to stimulate cAMP synthesis. Lower panels: The cells were treated for 1 hour with Scaff10-8 (30 μM) alone (control) or with Scaff10-8 and forskolin. Forskolin (10 μM) was added for the final 30 min of Scaff10-8 incubation. AQP2 (green) was detected with specific primary and Cy3-coupled secondary antibodies, F-actin (red) with Alexa Fluor 647-Phalloidin and nuclei with DAPI (blue). Signals were visualized using a laser scanning microscope. Representative images are shown. n = 3. The magnified views were derived from the indicated boxes. (B) The signal intensities arising from intracellular and plasma membrane AQP2 were recorded, related to nuclear signal intensities, and the ratios of plasma membrane to intracellular fluorescence signal intensities were calculated (n = 30 cells per condition). Ratios > 1 indicate a predominant localization of AQP2 at the plasma membrane. Statistically significant differences were calculated using one-way ANOVA with posthoc Bonferroni. Mean ± SEM; *, p ≤ 0.05; *** p ≤ 0.001.

COc1ccc(-c2coc3cc4oc(=O)c(CCC(=O)O)c(C)c4cc23)cc1 [Scaff10-8, 3-[3-(4-Methoxyphenyl)-5-methyl-7-oxo-furo[3,2-g]chromen-6-yl] propanoic acid] was tested, and the “viability of cells (ATP quantitation)” value (viability of cells) was “did not affect the viability”, the “effect on forskolin-induced redistribution of AQP2” value ([1]; 30 μM, 1 h plus forskolin) was “did not enhance the forskolin-induced redistribution” and the F-actin ([1]; Scaff10-8 30 μM alone, forskolin alone) was “F-actin also decreased”. For the same molecule, the “localization of AQP2” value ([1]; Scaff10-8 30 μM, 1 h, no forskolin, forskolin 10 μM, 30 min) was “caused the translocation of AQP2 to the plasma membrane” and the “effect of forskolin on F-actin” value ([1]; Scaff10-8 plus forskolin) was “did not influence”.

Source: PMC5786306, “An AKAP-Lbc-RhoA interaction inhibitor promotes the translocation of aquaporin-2 to the plasma membrane of renal collecting duct principal cells” (PLoS ONE, 2018)
